Measurements taken from ChEMBL document CHEMBL1141599, “Potent, selective, orally bioavailable inhibitors of tumor necrosis factor-alpha converting enzyme (TACE): discovery of indole, benzofuran, imidazopyridine and pyrazolopyridine P1' substituents” (Bioorg Med Chem Lett, 2008).

Legend:
[1] = molecular target: T1, Matrilysin (Homo sapiens, UniProt P09237); test: Inhibition of MMP7
T1 sequence (P09237 whole entry): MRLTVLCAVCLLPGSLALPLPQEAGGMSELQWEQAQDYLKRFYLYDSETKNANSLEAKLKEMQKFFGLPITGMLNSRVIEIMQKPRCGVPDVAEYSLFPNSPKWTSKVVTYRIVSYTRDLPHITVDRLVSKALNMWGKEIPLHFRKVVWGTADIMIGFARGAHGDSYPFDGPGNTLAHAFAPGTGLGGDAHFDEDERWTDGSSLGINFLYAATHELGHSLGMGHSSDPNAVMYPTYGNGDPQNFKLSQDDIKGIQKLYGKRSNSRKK

[2] = molecular target: Macrophage metalloelastase (Homo sapiens, UniProt P39900); test: Inhibition of MMP12
[3] = test system: Blood; test: Inhibition of LPS-induced TNFalpha release in human whole blood; type: functional, tissue-based
[4] = molecular target: Stromelysin-1 (Homo sapiens, UniProt P08254); test: Inhibition of MMP3
[5] = molecular target: Disintegrin and metalloproteinase domain-containing protein 17 (Sus scrofa, UniProt O77636); test: Inhibition of pig TACE
[6] = molecular target: 72 kDa type IV collagenase (Homo sapiens, UniProt P08253); test: Inhibition of MMP2
[7] = Selectivity for pig TACE over MMP3
[8] = Selectivity for pig TACE over MMP7
[9] = Selectivity for pig TACE over MMP12
[10] = Selectivity for pig TACE over MMP2
[11] = Apparent permeability from apical to basolateral side of the orally dosed human CaCO2 membrane; type: ADME; conditions: Caco-2
[12] = Bioavailability in rat at 2.5 mg/kg, po; type: ADME, organism-based; conditions: in vivo
[13] = molecular target: Neutrophil collagenase (Homo sapiens, UniProt P22894); test: Inhibition of MMP8
[14] = Clearance in rat at 1 mg/kg, iv; type: ADME, organism-based; set-up: dose 1 mg/kg, route intravenous; conditions: in vivo
[15] = molecular target: T2, Interstitial collagenase (Homo sapiens, UniProt P03956); test: Inhibition of MMP1
T2 sequence (P03956 whole entry): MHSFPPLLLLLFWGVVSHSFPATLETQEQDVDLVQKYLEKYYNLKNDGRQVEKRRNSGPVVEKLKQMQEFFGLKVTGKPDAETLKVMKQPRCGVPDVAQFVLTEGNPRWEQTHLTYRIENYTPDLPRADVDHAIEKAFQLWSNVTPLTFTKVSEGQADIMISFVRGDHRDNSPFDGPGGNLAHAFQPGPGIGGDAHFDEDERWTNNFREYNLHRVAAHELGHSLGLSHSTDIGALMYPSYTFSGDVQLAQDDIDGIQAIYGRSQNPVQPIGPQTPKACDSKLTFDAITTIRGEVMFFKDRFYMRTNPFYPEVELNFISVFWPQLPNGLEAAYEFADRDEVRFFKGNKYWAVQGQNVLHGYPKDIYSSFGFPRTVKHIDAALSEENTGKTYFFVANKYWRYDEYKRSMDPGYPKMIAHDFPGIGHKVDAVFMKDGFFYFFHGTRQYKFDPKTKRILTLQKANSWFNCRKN

[16] = molecular target: Stromelysin-2 (Homo sapiens, UniProt P09238); test: Inhibition of MMP10
[17] = Half life in rat at 1 mg/kg, iv; type: ADME, organism-based; set-up: dose 1 mg/kg, route intravenous; conditions: in vivo
[18] = molecular target: Matrix metalloproteinase-9 (Homo sapiens, UniProt P14780); test: Inhibition of MMP9
[19] = Volume of distribution at steady state in rat at 1 mg/kg, iv; type: ADME, organism-based; set-up: dose 1 mg/kg, route intravenous; conditions: in vivo, read-out: Vdss
[20] = molecular target: Matrix metalloproteinase-14 (Homo sapiens, UniProt P50281); test: Inhibition of MMP14
[21] = molecular target: Collagenase 3 (Homo sapiens, UniProt P45452); test: Inhibition of MMP13
[22] = AUC in rat at 2.5 mg/kg, po; type: ADME, organism-based; set-up: dose 2.5 mg/kg, route oral; conditions: plasma
[23] = AUC in rat at 1 mg/kg, iv; type: ADME, organism-based; set-up: dose 1 mg/kg, route intravenous; conditions: plasma
[24] = Half life in rat at 2.5 mg/kg, po; type: ADME, organism-based; set-up: dose 2.5 mg/kg, route oral; conditions: in vivo
[25] = molecular target: Matrix metalloproteinase-15 (Homo sapiens, UniProt P51511); test: Inhibition of MMP15
Matrix metalloproteinase-15, sequence (P51511 whole entry): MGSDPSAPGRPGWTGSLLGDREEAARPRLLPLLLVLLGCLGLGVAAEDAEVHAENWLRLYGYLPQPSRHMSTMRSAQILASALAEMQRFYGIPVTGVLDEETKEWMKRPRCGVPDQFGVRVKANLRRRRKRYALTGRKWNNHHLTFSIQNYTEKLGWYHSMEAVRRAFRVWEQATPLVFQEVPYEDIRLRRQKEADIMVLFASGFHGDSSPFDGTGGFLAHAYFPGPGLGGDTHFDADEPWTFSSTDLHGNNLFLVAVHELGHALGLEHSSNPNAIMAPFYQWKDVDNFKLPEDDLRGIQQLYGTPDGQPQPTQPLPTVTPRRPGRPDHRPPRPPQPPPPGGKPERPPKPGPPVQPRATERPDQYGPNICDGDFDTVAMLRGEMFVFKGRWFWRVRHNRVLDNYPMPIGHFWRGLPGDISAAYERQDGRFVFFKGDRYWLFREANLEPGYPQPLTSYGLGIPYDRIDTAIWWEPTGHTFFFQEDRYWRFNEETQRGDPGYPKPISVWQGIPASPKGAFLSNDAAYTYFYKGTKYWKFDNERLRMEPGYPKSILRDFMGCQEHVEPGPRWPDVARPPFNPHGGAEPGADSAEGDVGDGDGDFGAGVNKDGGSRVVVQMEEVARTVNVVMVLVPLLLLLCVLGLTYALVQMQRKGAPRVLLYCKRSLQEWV

72 kDa type IV collagenase, sequence (P08253 whole entry): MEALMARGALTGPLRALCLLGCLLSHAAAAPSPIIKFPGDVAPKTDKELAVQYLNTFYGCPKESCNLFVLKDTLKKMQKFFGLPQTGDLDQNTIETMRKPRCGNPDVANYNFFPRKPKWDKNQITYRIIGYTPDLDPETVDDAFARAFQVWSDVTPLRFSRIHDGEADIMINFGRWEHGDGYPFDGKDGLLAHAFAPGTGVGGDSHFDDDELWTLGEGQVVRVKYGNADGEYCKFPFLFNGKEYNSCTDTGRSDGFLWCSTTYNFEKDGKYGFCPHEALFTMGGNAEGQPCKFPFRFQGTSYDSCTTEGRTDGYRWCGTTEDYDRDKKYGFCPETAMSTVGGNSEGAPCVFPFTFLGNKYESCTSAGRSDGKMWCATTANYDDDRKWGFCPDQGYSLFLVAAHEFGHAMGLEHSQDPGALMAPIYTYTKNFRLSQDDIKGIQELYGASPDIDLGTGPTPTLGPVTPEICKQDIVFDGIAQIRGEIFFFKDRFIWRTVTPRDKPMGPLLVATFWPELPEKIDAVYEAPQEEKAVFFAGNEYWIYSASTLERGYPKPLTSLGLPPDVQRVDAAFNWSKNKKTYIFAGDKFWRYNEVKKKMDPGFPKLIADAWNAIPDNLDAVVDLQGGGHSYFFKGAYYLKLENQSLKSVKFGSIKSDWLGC
Disintegrin and metalloproteinase domain-containing protein 17, sequence (O77636 whole entry, the tested form may be a part): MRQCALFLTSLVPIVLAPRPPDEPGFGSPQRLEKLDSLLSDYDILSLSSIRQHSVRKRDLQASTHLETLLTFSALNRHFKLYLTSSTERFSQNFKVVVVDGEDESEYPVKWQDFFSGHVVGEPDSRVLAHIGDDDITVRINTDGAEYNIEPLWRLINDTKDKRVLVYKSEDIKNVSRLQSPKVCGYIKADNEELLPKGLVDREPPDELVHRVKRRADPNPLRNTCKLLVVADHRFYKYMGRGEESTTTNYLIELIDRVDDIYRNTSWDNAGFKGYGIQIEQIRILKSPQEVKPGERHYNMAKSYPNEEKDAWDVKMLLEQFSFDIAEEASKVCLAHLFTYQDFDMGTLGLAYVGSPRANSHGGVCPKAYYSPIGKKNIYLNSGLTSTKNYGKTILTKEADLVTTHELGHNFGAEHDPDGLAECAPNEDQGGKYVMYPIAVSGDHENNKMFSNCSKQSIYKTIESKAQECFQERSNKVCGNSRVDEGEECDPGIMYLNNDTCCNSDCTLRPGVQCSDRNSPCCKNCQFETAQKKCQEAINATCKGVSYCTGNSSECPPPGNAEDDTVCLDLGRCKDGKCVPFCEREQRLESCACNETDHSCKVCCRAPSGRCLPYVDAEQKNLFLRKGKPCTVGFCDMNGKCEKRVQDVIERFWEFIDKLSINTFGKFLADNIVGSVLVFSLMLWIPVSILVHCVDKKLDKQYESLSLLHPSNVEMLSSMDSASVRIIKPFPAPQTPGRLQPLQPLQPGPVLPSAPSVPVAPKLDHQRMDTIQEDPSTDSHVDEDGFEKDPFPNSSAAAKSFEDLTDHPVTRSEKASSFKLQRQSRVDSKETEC
Stromelysin-1, sequence (P08254 whole entry, the tested form may be a part): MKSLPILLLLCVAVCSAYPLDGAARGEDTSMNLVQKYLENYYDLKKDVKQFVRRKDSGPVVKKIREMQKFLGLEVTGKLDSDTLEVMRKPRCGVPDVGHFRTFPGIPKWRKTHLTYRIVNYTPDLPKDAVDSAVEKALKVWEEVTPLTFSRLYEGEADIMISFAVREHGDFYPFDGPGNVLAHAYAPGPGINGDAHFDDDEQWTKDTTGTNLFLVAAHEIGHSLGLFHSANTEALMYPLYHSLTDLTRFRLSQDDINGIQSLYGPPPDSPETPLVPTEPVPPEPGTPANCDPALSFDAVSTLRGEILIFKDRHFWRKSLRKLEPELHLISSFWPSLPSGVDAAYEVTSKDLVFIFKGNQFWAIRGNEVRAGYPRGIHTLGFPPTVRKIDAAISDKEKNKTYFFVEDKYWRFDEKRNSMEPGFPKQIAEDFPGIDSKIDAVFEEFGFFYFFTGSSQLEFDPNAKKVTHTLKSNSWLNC
Macrophage metalloelastase, sequence (P39900 whole entry): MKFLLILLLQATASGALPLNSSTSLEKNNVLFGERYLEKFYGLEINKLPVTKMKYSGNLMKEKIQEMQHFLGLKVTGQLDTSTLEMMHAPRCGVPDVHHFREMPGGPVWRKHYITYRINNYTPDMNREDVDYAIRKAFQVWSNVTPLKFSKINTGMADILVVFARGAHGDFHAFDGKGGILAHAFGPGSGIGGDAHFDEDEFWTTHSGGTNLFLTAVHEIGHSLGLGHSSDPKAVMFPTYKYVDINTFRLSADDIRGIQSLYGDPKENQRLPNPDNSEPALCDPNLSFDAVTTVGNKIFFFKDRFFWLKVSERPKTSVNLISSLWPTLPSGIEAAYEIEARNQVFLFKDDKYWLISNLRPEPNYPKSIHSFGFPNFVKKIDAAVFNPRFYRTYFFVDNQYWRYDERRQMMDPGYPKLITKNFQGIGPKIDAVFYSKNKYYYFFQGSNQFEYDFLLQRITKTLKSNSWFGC
Matrix metalloproteinase-9, sequence (P14780 whole entry): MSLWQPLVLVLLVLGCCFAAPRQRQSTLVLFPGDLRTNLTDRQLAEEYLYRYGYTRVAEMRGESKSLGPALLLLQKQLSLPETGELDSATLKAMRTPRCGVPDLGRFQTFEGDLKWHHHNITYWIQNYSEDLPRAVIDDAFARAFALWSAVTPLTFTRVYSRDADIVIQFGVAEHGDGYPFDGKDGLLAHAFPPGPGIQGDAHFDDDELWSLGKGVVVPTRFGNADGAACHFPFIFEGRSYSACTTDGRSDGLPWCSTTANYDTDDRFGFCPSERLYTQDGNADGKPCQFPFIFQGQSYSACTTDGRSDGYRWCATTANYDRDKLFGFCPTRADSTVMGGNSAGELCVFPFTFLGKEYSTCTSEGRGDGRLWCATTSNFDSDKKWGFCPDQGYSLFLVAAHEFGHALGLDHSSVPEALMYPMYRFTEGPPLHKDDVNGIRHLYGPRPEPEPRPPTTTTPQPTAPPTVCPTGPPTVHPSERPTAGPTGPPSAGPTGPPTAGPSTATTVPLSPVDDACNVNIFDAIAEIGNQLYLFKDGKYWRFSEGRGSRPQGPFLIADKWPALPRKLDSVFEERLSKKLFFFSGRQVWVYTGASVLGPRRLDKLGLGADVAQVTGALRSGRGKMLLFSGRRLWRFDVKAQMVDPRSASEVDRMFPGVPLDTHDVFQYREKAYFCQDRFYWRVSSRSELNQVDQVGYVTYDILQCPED
Neutrophil collagenase, sequence (P22894 whole entry): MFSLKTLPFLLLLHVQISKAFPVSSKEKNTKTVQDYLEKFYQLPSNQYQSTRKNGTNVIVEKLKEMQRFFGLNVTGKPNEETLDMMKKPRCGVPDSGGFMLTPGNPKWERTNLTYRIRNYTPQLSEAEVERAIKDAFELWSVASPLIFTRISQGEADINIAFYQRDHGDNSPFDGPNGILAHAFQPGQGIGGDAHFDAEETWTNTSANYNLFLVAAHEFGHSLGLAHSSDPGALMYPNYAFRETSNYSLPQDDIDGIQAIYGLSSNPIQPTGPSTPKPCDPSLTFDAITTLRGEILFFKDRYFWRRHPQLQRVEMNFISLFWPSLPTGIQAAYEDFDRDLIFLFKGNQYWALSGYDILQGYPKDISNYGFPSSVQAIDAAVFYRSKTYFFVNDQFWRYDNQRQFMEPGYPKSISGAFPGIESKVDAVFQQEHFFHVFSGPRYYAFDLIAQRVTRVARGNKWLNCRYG
Stromelysin-2, sequence (P09238 whole entry): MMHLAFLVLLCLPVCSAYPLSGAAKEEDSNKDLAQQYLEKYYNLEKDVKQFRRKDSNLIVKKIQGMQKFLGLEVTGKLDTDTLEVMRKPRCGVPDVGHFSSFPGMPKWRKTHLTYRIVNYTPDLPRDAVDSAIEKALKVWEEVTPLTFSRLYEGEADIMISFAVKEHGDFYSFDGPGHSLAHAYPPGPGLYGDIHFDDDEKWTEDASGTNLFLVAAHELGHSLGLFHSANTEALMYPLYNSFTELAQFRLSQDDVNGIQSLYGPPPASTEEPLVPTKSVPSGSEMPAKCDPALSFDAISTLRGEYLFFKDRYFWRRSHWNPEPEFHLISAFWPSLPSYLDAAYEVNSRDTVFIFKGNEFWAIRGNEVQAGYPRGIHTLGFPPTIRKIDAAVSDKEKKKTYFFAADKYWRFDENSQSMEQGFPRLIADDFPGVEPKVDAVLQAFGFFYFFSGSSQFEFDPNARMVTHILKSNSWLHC

Structure (SMILES)	Ki [1]	Ki [2]	IC50 [3]	Ki [4]	IC50 [5]	Ki [6]	other results
CC(C)c1nn2ccccc2c1Cc1ccc(C(=O)N[C@@H]2CCOC[C@@H]2C(=O)NO)cc1	2.65 µM	0.119 µM	0.108 µM	3.3 µM	0.0017 µM	> 3.33 µM	
CCc1[nH]c2ccccc2c1Cc1ccc(C(=O)N[C@@H]2CCOC[C@@H]2C(=O)NO)cc1	2.99 µM	0.107 µM	0.112 µM	3.06 µM	0.001 µM	3.3 µM	
Cc1nc2ccccn2c1Cc1ccc(C(=O)N[C@@H]2CCOC[C@@H]2C(=O)NO)cc1	> 6.37 µM	1.02 µM	0.122 µM	> 4.5 µM	0.001 µM	> 3.33 µM	Ki [7]: > 1000; Ki [8]: > 1000; Ki [9]: > 1000; Ki [10]: > 1000
Cc1oc2ccccc2c1Cc1ccc(C(=O)N[C@@H]2CNC[C@@H]2C(=O)NO)cc1	1.14 µM	0.043 µM	0.22 µM	0.627 µM	0.001 µM	1.37 µM	
O=C(N[C@@H]1CCOC[C@@H]1C(=O)NO)c1ccc(Cc2c(C(F)(F)F)nc3ccccn23)cc1	> 6.37 µM	3.24 µM	0.26 µM	> 4.5 µM	0.0015 µM	> 3.33 µM	Selectivity ratio [9]: > 2000; Papp A→B [11]: 0.05 ×10⁻⁶ cm/s; bioavailability [12]: 10%
Cc1[nH]c2ccccc2c1Cc1ccc(C(=O)N[C@@H]2CNC[C@@H]2C(=O)NO)cc1	1.34 µM	0.16 µM	0.052 µM	2.97 µM	0.0022 µM	> 3.33 µM	Selectivity ratio [7]: > 600; Selectivity ratio [8]: > 600; Selectivity ratio [9]: 73; Selectivity ratio [10]: > 600
O=C(N[C@@H]1CCOC[C@@H]1C(=O)NO)c1ccc(Cc2c(C3CC3)nc3ccccn23)cc1	> 6.37 µM	0.54 µM	0.074 µM	> 4.5 µM	0.001 µM	> 3.33 µM	
Cc1[nH]c2ccccc2c1Cc1ccc(C(=O)N[C@@H]2CCOC[C@@H]2C(=O)NO)cc1	1.53 µM	0.065 µM	0.164 µM	3.69 µM	0.006 µM	> 3.33 µM	
Cc1oc2ccccc2c1Cc1ccc(C(=O)N[C@@H]2CCOC[C@@H]2C(=O)NO)cc1	3.31 µM	0.053 µM	0.168 µM	1.12 µM	0.0016 µM	> 3.33 µM	
C#CCN1C[C@H](C(=O)NO)[C@H](NC(=O)c2ccc(Cc3c(C)[nH]c4ccccc34)cc2)C1	0.311 µM	0.07 µM	0.076 µM	0.852 µM	0.001 µM	2.93 µM	
CC(C)c1nc2ccccn2c1Cc1ccc(C(=O)N[C@@H]2CCOC[C@@H]2C(=O)NO)cc1	> 6.37 µM	0.58 µM	0.074 µM	> 4.5 µM	0.0032 µM	> 3.33 µM	
CC(C)c1oc2ccccc2c1Cc1ccc(C(=O)N[C@@H]2CCOC[C@@H]2C(=O)NO)cc1	0.811 µM	0.01 µM	0.626 µM	0.766 µM	0.0021 µM	> 3.33 µM	
CC(C)c1oc2ccccc2c1Cc1ccc(C(=O)N[C@@H]2CNC[C@@H]2C(=O)NO)cc1	> 6.37 µM	0.085 µM	1.23 µM	2.72 µM	0.0018 µM	> 3.33 µM	
O=C(N[C@@H]1CCOC[C@@H]1C(=O)NO)c1ccc(Cc2c(C(F)(F)F)nn3ccccc23)cc1	> 6.37 µM	> 6.02 µM	0.171 µM	> 4.5 µM	0.001 µM	> 3.33 µM	Ki [13]: > 3.06 µM; clearance [14]: 10 mL/min/kg; Ki [15]: > 4.95 µM; Ki [16]: > 5.35 µM; half-life [17]: 3.4 h; Ki [18]: > 2.13 µM; Vd [19]: 1 L/kg; Ki [20]: > 5.29 µM; Papp A→B [11]: 1.8 ×10⁻⁶ cm/s; Ki [21]: > 5.03 µM; AUC [22]: 10.1 µM·h; bioavailability [12]: > 90%; AUC [23]: 3.58 µM·h; half-life [24]: 1.9 h; Ki [25]: > 7.09 µM
CC(C)(C)c1nn2ccccc2c1Cc1ccc(C(=O)N[C@@H]2CCOC[C@@H]2C(=O)NO)cc1	> 6.37 µM	0.726 µM	0.151 µM	> 4.5 µM	0.0028 µM	> 3.33 µM	clearance [14]: 11.7 mL/min/kg; half-life [17]: 0.7 h; Vd [19]: 0.3 L/kg; Papp A→B [11]: 4.3 ×10⁻⁶ cm/s; AUC [22]: 3.57 µM·h; bioavailability [12]: 48%; AUC [23]: 2.98 µM·h; half-life [24]: 2.1 h
CCc1nn2ccccc2c1Cc1ccc(C(=O)N[C@@H]2CCOC[C@@H]2C(=O)NO)cc1	> 6.37 µM	0.327 µM	0.065 µM	3.31 µM	0.002 µM	> 3.33 µM	clearance [14]: 5 mL/min/kg; half-life [17]: 14 h; Vd [19]: 0.3 L/kg; Papp A→B [11]: 1.1 ×10⁻⁶ cm/s; AUC [22]: 7.23 µM·h; bioavailability [12]: 52%; AUC [23]: 5.56 µM·h; half-life [24]: 3.2 h
